The text below walks through data of patent publication US20130030012A1, “COMPOUNDS” (Glaxo Group Limited, priority 2011, published 2013).

Where a name gives a salt, the structure may show the parent alone. Read-outs that look alike come from different tables or passages of the source.

For assay [1], the target named is T1, recombinant human Lp-PLA2 (Homo sapiens, UniProt Q13093).
T1 sequence (Q13093 22-441): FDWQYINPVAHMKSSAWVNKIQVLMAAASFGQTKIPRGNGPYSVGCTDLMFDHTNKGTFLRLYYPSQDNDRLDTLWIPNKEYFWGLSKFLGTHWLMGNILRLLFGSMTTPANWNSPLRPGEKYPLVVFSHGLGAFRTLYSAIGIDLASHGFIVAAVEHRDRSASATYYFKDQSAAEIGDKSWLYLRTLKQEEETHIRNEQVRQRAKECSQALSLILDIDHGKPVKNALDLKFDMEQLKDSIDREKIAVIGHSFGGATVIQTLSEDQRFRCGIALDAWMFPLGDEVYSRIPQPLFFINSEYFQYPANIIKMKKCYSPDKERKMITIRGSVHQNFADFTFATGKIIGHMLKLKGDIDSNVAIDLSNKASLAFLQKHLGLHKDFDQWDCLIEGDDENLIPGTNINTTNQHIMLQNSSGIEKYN
Description: Recombinant human Lp-PLA2 assay (rhLp-PLA2, PED6 assay). To be noted: upper limit for pIC50 in this assay is 9.3. The format is biochemical. From the text:
(1) Recombinant Human Lp-PLA2 Assay (rhLp-PLA2) (Also Referred to as “PED6” Assay)
N-((6-(2,4-dinitrophenyl)amino)-hexanoyl)-2-(4,4-difluoro-5,7-dimethyl-4-bora-3a,4a-diaza-s-indacene-3-pentanoyl)-1-hexadecanoyl-sn-glycero-3-phosphoethanolamine, triethylammonium salt (PED6) is a commercially available fluorescently-labeled phospholipid, which is commercially available from Invitrogene and Molecular Probes. There is a quenching […] and a Bodipy fluorescein (FL) group in the sn2 position. Upon cleavage with Lp-PLA2, the Bodipy FL group is liberated and then may result in an increase in fluorescence. Inhibitors of Lp-PLA2 therefore prevent this cleavage and no fluorescent increase is observed.
The PED6 assay was run as an unquenched 10 μL assay. The source plate containing the compounds to be tested was prepared by making 1:3 (by volume) serial dilution of the compounds within DMSO on 384-well microplate. Then, 0.01 μL of the compounds on compound source plate were transferred into 384 well Greiner 784076 (black) plates using ECHO liquid dispenser. 5 μL of recombinant human Lp-PLA2 enzyme (4 nM (or 110 pM) rhLp-PLA2 in assay buffer of 50 mM HEPES, pH 7.4, 150 mM NaCl, 1 mM CHAPS) was added to each well of the plate. Plates were centrifuged for 10 sec at 500 rpm. After 30 minutes preincubation, 5 μL of substrate ([…] (or 5 μM) PED6 [from 5 mM DMSO stock] in assay buffer of 50 mM HEPES, pH 7.4, 150 mM NaCl, 1 mM CHAPS) was added to 384 well Greiner 784076 (black) plates. Plates were centrifuged for 10 sec at 500 rpm. The plate was covered to protect it from light and incubated for 20 min at room temperature. The plates were read for fluorescence intensity at ex: 480/em: 540 using ViewLux microplate imager for Envision spectrofluoroimeters pIC50 data, curve and QC analysis was conducted by using XL fit module in Excel.
The compounds described below were tested generally according to the PED6 assay described above.

Assay [2] concerns the target T2, Lp-PLA2 in human plasma (Homo sapiens, UniProt Q13093).
T2 construct: from tissue; host or cells: pooled human plasma
T2 sequence (Q13093 22-441): T1 sequence (Q13093 22-441)
The assay is described as follows: Lp-PLA2 human plasma assay (Thio-PAF assay). The assay is classed as biochemical. To be noted: pooled human plasma; read-out: pIC50 values in the thio-PAF assay (converted). The text has this:
The human plasma assay utilizes a thioester analog of PAF (phosphatidylcholine), where hydrolysis yields to the formation of a phospholipid containing a free thiol group. The amount of thiol is quantitated continuously by reacting with CPM (7-diethylamino-3-(4′-maleimidylphenyl)-4-methylcoumarin), a maleimide which increases in fluoresence after Michael addition of thiols. This assay may detect the activity of Lp-PLA2 in human plasma, as determined by specific inhibition by Lp-PLA2 inhibitors.
The thio-PAF assay was run as a quenched 15 μL assay. Compounds source plate was prepared by making 1:3 (by volume) serial dilution of the compounds into pure DMSO on 384-well microplate. 0.01 μL of compounds on compound source plate were transferred to 384 well Greiner 784076 (black) low-volume plates by ECHO liquid dispenser. 8 μL pooled human plasma, which was previously aliquoted and frozen, was added. Plates were centrifuged for 10 sec at 500 rpm. After 30 minutes preincubation, 2 μL of substrate solution comprising 2.5 mM 2-thio-PAF [from ethanol stock], […] CPM [from a DMSO stock] and 3.2 mM NEM (N-ethylmaleimide) [made fresh daily in DMSO] in assay buffer of 50 mM HEPES, pH 7.4, 150 mM NaCl, 1 mM CHAPS was added to 384 well Greiner 784076 (black) low-volume plates by BRAVO liquid handling station. After 2 mins, reaction was quenched with 5 μL of 5% aqueous trifluoroacetic acid (TFA). Plates were covered to protect from light and incubated for 40 min at room temperature. Plates were read at ex: 380/em: 485 using—Envision microplate reader. pIC50 data, curve and QC analysis was conducted by using XLFit module in Excel.

Setting [3] is: read-out: pIC50 values in the PED6 assay (converted).
Setting [4] is: Table 1, read-out: rhLp-PLA2 (PED6 assay) (pIC50) (converted).

Turning to `CN1CCCn2c1cc(OCc1ccc(F)c(F)c1)nc2=O` [Example 10, 8-((3,4-difluorobenzyl)oxy)-1-methyl-3,4-dihydro-1H-pyrimido[1,6-a]pyrimidin-6(2H)-one, trifluoroacetic acid salt], the figures for the IC50 in assay [1] (setting [3]) and in assay [2] were at most 10 nM and at most 100 nM, respectively.

As for `CN1CCCn2c1cc(OCc1ccc(Oc3ccc(F)c(C(F)(F)F)c3)c(F)c1)nc2=O` [Example 13, 8-((3-fluoro-4-(4-fluoro-3-(trifluoromethyl)phenoxy)benzyl)oxy)-1-methyl-3,4-dihydro-1H-pyrimido[1,6-a]pyrimidin-6(2H)-one], the IC50 in assay [1] (setting [3]) is at most 10 nM; in assay [2], at most 100 nM.

For the molecule `CN1CCCn2c1cc(OCc1ccc(Oc3ccc(F)c(Cl)c3)c(F)c1)nc2=O` [Example 15, 8-((4-(3-chloro-4-fluorophenoxy)-3-fluorobenzyl)oxy)-1-methyl-3,4-dihydro-1H-pyrimido[1,6-a]pyrimidin-6(2H)-one], the IC50 in assay [1] (setting [3]) is at most 10 nM; in assay [2] it was at most 100 nM.

Take `CN1CCCn2c1cc(OCc1ccc(Oc3cccc(Cl)c3)c(F)c1)nc2=O` [Example 16, 8-((4-(3-chlorophenoxy)-3-fluorobenzyl)oxy)-1-methyl-3,4-dihydro-1H-pyrimido[1,6-a]pyrimidin-6(2H)-one]: the IC50 in assay [1] (setting [3]) is at most 10 nM; in assay [2], at most 100 nM.

With `CN1CCCn2c1cc(OCc1ccc(Oc3ccc(F)c(Cl)c3)cc1)nc2=O` [Example 17, 8-((4-(3-chloro-4-fluorophenoxy)benzyl)oxy)-1-methyl-3,4-dihydro-1H-pyrimido[1,6-a]pyrimidin-6(2H)-one], the IC50 in assay [1] (setting [3]) was at most 10 nM; in assay [2] it was at most 1000 nM.

Turning to `CN1CCCn2c1cc(OCc1cc(F)c(F)c(F)c1)nc2=O` [Example 21, 1-methyl-8-((3,4,5-trifluorobenzyl)oxy)-3,4-dihydro-1H-pyrimido[1,6-a]pyrimidin-6(2H)-one], the results for the IC50 in assay [1] (setting [4]), in assay [1] (setting [3]) and in assay [2] were 2 nM, at most 10 nM and at most 100 nM, respectively.

Take `CN1CCCn2c1cc(OCc1ccc(Oc3cccc(F)c3)c(F)c1)nc2=O` [Example 25, 8-((3-fluoro-4-(3-fluorophenoxy)benzyl)oxy)-1-methyl-3,4-dihydro-1H-pyrimido[1,6-a]pyrimidin-6(2H)-one]: the IC50 in assay [1] (setting [3]) was at most 10 nM; in assay [2] it was at most 1000 nM.

Turning to `CN1CCCn2c1cc(OCc1ccc(Oc3cccc(C(F)(F)F)c3)c(F)c1)nc2=O` [Example 28, 8-((3-fluoro-4-(3-(trifluoromethyl)phenoxy)benzyl)oxy)-1-methyl-3,4-dihydro-1H-pyrimido[1,6-a]pyrimidin-6(2H)-one], the figures for the IC50 in assay [1] (setting [4]), in assay [1] (setting [3]) and in assay [2] were 2.51 nM, at most 10 nM and at most 100 nM, respectively.

For `CN1CCCn2c1cc(OCc1ccc(Oc3ccc(C(F)(F)F)cc3)c(C#N)c1)nc2=O` [Example 29, 5-(((1-methyl-6-oxo-2,3,4,6-tetrahydro-1H-pyrimido[1,6-a]pyrimidin-8-yl)oxy)methyl)-2-(4-(trifluoromethyl)phenoxy)benzonitrile], the IC50 in assay [1] (setting [3]) is at most 10 nM; in assay [2] it was at most 100 nM.

For the molecule `CN1CCCn2c1cc(OCc1ccc(Oc3ccc(F)cc3)c(C#N)c1)nc2=O` [Example 30, 2-(4-fluorophenoxy)-5-(((1-methyl-6-oxo-2,3,4,6-tetrahydro-1H-pyrimido[1,6-a]pyrimidin-8-yl)oxy)methyl)benzonitrile], the IC50 in assay [1] (setting [3]) was at most 10 nM; in assay [2] it was at most 100 nM.

On to `CN1CCCn2c1cc(OCc1ccc(Oc3cccc(C(F)(F)F)n3)c(F)c1)nc2=O` [Example 32, 8-((3-fluoro-4-((6-(trifluoromethyl)pyridin-2-yl)oxy)benzyl)oxy)-1-methyl-3,4-dihydro-1H-pyrimido[1,6-a]pyrimidin-6(2H)-one], for which the IC50 is at most 10 nM in assay [1] (setting [3]) and at most 1000 nM in assay [2].

Consider `CN1CCCn2c1cc(OCc1ccc(Oc3ccc(F)c(F)c3)c(C#N)c1)nc2=O` [Example 34, 2-(3,4-difluorophenoxy)-5-(((1-methyl-6-oxo-2,3,4,6-tetrahydro-1H-pyrimido[1,6-a]pyrimidin-8-yl)oxy)methyl)benzonitrile], for which the IC50 in assay [1] (setting [3]) is at most 10 nM; in assay [2], at most 100 nM.

`CC(C)N1CCCn2c1cc(OCc1ccc(Oc3ccc(C(F)(F)F)nc3)c(F)c1)nc2=O` [Example 38, 8-((3-fluoro-4-((6-(trifluoromethyl)pyridin-3-yl)oxy)benzyl)oxy)-1-isopropyl-3,4-dihydro-1H-pyrimido[1,6-a]pyrimidin-6(2H)-one]: the IC50 in assay [1] (setting [3]) was at most 10 nM; in assay [2], at most 100 nM.

Turning to `CC(C)N1CCCn2c1cc(OCc1ccc(F)c(F)c1)nc2=O` [Example 40, 8-((3,4-difluorobenzyl)oxy)-1-isopropyl-3,4-dihydro-1H-pyrimido[1,6-a]pyrimidin-6(2H)-one], the IC50 in assay [1] (setting [4]) is 10 nM; in assay [1] (setting [3]), at most 10 nM; in assay [2], at most 100 nM.

Consider `CC(C)N1CCCn2c1cc(OCc1cc(F)c(F)c(F)c1)nc2=O` [Example 42, isopropyl-8-((3,4,5-trifluorobenzyl)oxy)-3,4-dihydro-1H-pyrimido[1,6-a]pyrimidin-6(2H)-one], for which the IC50 in assay [1] (setting [4]) is 5.01 nM; in assay [1] (setting [3]) it was at most 10 nM; in assay [2], at most 100 nM.

Consider `N#Cc1cc(COc2cc3n(c(=O)n2)CCCN3)ccc1Oc1cccc(C(F)(F)F)c1` [Example 53, 5-(((6-oxo-2,3,4,6-tetrahydro-1H-pyrimido[1,6-a]pyrimidin-8-yl)oxy)methyl)-2-(3-(trifluoromethyl)phenoxy)benzonitrile], for which the IC50 in assay [1] (setting [4]) is 1 nM; in assay [1] (setting [3]), at most 1 nM; in assay [2] it was at most 100 nM.

On to `CN1CCCn2c1cc(OCCc1ccc(Oc3ccc(C(F)(F)F)c(Cl)c3)cn1)nc2=O` [Example 54, 8-(2-(5-(3-chloro-4-(trifluoromethyl)phenoxy)pyridin-2-yl)ethoxy)-1-methyl-3,4-dihydro-1H-pyrimido[1,6-a]pyrimidin-6(2H)-one], for which the IC50 in assay [1] (setting [3]) was at most 10 nM; in assay [2] it was at most 1000 nM.

Take `CN1CCCn2c1cc(OCCc1ccc(Oc3ccc(Cl)c(C(F)(F)F)c3)cc1)nc2=O` [Example 55, 8-(4-(4-chloro-3-(trifluoromethyl)phenoxy)phenethoxy)-1-methyl-3,4-dihydro-1H-pyrimido[1,6-a]pyrimidin-6(2H)-one]: the IC50 in assay [1] (setting [3]) was at most 1 nM; in assay [2], at most 100 nM.

Take `Cc1ccc(Oc2ccc(COc3cc4n(c(=O)n3)CCCN4C)cc2C#N)cn1` [Example 56, 5-(((1-methyl-6-oxo-2,3,4,6-tetrahydro-1H-pyrimido[1,6-a]pyrimidin-8-yl)oxy)methyl)-2-((6-methylpyridin-3-yl)oxy)benzonitrile]: the results for the IC50 in assay [1] (setting [3]) and in assay [2] were at most 1 nM and at most 100 nM, respectively.
